Some results are limits rather than exact numbers.

The values below come from ChEMBL document CHEMBL3877265, “Design, synthesis and docking studies of novel 1,2-dihydro-4-hydroxy-2-oxoquinoline-3-carboxamide derivatives as a potential anti-proliferative agents” (2017).

Holding throughout (format): functional
A short description of test [1]: Antiproliferative activity against human MDA-MB-231 cells after 48 hrs by SRB assay. Particulars: MDA-MB-231, 48 h.
Test [2] is described as follows: Antiproliferative activity against human PANC1 cells after 48 hrs by SRB assay. Conditions: PANC-1, 48 h. (In general: In SRB staining, fixed cells bind dye roughly in proportion to their protein.)
The nature of test [3]: Antiproliferative activity against human HeLa cells after 48 hrs by SRB assay.

Turning to `Cn1c(=O)c(C(=O)NCCC(=O)N2CCN(c3ccccc3)CC2)c(O)c2ccccc21`, the GI50 in test [1] (read-out: GI50) was 1620 nM; in test [1] (read-out: pGI50 (converted)), 1620 nM; in test [2] (read-out: GI50), 1570 nM; in test [2] (read-out: pGI50 (converted)), 1570 nM; in test [3] (read-out: GI50), 3900 nM; in test [3] (read-out: pGI50 (converted)), 3900 nM.

`COc1cccc(N2CCN(C(=O)CCNC(=O)c3c(O)c4ccccc4n(C)c3=O)CC2)c1`: the GI50 in test [1] (read-out: GI50) is 1300 nM; in test [1] (read-out: pGI50 (converted)) it was 1300 nM; in test [2] (read-out: GI50), 510 nM; in test [2] (read-out: pGI50 (converted)), 510 nM; in test [3] (read-out: GI50), 730 nM; in test [3] (read-out: pGI50 (converted)), 730 nM.

Regarding `Cn1c(=O)c(C(=O)NCCC(=O)N2CCCCC2)c(O)c2ccccc21`, the GI50 was 1400 nM in test [1] (read-out: GI50); 1400 nM in test [1] (read-out: pGI50 (converted)); 150 nM in test [2] (read-out: GI50); 150 nM in test [2] (read-out: pGI50 (converted)); 820 nM in test [3] (read-out: GI50); 820 nM in test [3] (read-out: pGI50 (converted)).

As to `CN1CCN(C(=O)CCNC(=O)c2c(O)c3ccccc3n(C)c2=O)CC1`, the GI50 in test [1] (read-out: GI50) was 590 nM; in test [1] (read-out: pGI50 (converted)) it was 590 nM; in test [2] (read-out: GI50), 1660 nM; in test [2] (read-out: pGI50 (converted)), 1660 nM; in test [3] (read-out: GI50), 1160 nM; in test [3] (read-out: pGI50 (converted)), 1160 nM.

Consider `Cn1c(=O)c(C(=O)NCCC(=O)N2CCN(c3ccccc3F)CC2)c(O)c2ccccc21`, for which the GI50 in test [1] (read-out: GI50) was 1700 nM; in test [1] (read-out: pGI50 (converted)), 1700 nM; in test [2] (read-out: GI50), 2500 nM; in test [2] (read-out: pGI50 (converted)), 2500 nM; in test [3] (read-out: GI50) it was 960 nM; in test [3] (read-out: pGI50 (converted)) it was 960 nM.

With `Cn1c(=O)c(C(=O)NCCC(=O)N2CCN(c3ccc(C(F)(F)F)cc3)CC2)c(O)c2ccccc21`, the GI50 in test [1] (read-out: GI50) is 5400 nM; in test [1] (read-out: pGI50 (converted)), 5400 nM; in test [2] (read-out: GI50), 2550 nM; in test [2] (read-out: pGI50 (converted)), 2550 nM; in test [3] (read-out: GI50) it was 3700 nM; in test [3] (read-out: pGI50 (converted)), 3700 nM.

For the compound `CCN1CCN(C(=O)CCNC(=O)c2c(O)c3ccccc3n(C)c2=O)CC1`, the GI50 in test [1] (read-out: GI50) is 1320 nM; in test [1] (read-out: pGI50 (converted)), 1320 nM; in test [2] (read-out: GI50) it was 480 nM; in test [2] (read-out: pGI50 (converted)), 480 nM; in test [3] (read-out: GI50), 880 nM; in test [3] (read-out: pGI50 (converted)), 880 nM.

Turning to `Cn1c(=O)c(C(=O)NCCC(=O)N2CCN(Cc3ccccc3)CC2)c(O)c2ccccc21`, the GI50 in test [1] (read-out: GI50) was 510 nM; in test [1] (read-out: pGI50 (converted)) it was 510 nM; in test [2] (read-out: GI50) it was 950 nM; in test [2] (read-out: pGI50 (converted)) it was 950 nM; in test [3] (read-out: GI50) it was 760 nM; in test [3] (read-out: pGI50 (converted)) it was 760 nM.

As for `Cn1c(=O)c(C(=O)NCCC(=O)N2CCSCC2)c(O)c2ccccc21`, the GI50 was 2250 nM in test [1] (read-out: GI50); 2250 nM in test [1] (read-out: pGI50 (converted)); 1910 nM in test [2] (read-out: GI50); 1910 nM in test [2] (read-out: pGI50 (converted)); 3000 nM in test [3] (read-out: GI50); 3000 nM in test [3] (read-out: pGI50 (converted)).

As for `Cn1c(=O)c(C(=O)NCCC(=O)N2CCC(Cc3ccccc3)CC2)c(O)c2ccccc21`, the GI50 in test [1] (read-out: GI50) is 710 nM; in test [1] (read-out: pGI50 (converted)), 710 nM; in test [2] (read-out: GI50) it was 680 nM; in test [2] (read-out: pGI50 (converted)), 680 nM; in test [3] (read-out: GI50), 1400 nM; in test [3] (read-out: pGI50 (converted)), 1400 nM.

Regarding `Cn1c(=O)c(C(=O)NCCC(=O)N2CCN(c3ccc([N+](=O)[O-])cc3)CC2)c(O)c2ccccc21`, the GI50 in test [1] (read-out: GI50) is 300 nM; in test [1] (read-out: pGI50 (converted)) it was 300 nM; in test [2] (read-out: GI50), 420 nM; in test [2] (read-out: pGI50 (converted)), 420 nM; in test [3] (read-out: GI50), 940 nM; in test [3] (read-out: pGI50 (converted)) it was 940 nM.

Take `COc1ccccc1N1CCN(C(=O)CCNC(=O)c2c(O)c3ccccc3n(C)c2=O)CC1`: the GI50 is 1200 nM in test [1] (read-out: GI50); 1200 nM in test [1] (read-out: pGI50 (converted)); 700 nM in test [2] (read-out: GI50); 700 nM in test [2] (read-out: pGI50 (converted)); 740 nM in test [3] (read-out: GI50); 740 nM in test [3] (read-out: pGI50 (converted)).

`COc1ccc(C[C@@H](O)c2cc(OC)c(OC)c(OC)c2)cc1O` [COMBRETASTATIN]: the GI50 in test [1] (read-out: GI50) was 90 nM; in test [1] (read-out: pGI50 (converted)), 90 nM; in test [2] (read-out: GI50), 59 nM; in test [2] (read-out: pGI50 (converted)), 59 nM; in test [3] (read-out: GI50), 83 nM; in test [3] (read-out: pGI50 (converted)), 83 nM.

For `COC(=O)Nc1nc2cc(C(=O)c3cccs3)ccc2[nH]1` [NOCODAZOLE], the GI50 in test [1] (read-out: GI50), in test [2] (read-out: GI50) and in test [3] (read-out: GI50) was below 10 nM throughout.
